Laboratory results reported in patent US20210369720A1, “SYNERGISTIC COMPOSITION HAVING NEUROPROTECTIVE PROPERTIES AND METHODS OF USE THEREOF” (Rutgers, The State University of New Jersey, priority 2018, published 2021).

How the values were obtained:
c-fos = assay: Immunohistochemical staining of c-fos in the hippocampus, Syn^Tg mice; assay type: in vivo; conditions: EHT 12 mg/kg/day and/or caffeine 50 mg/kg/day until six months of age
Description: (§1) Thy1-α-synuclein transgenic mice (Syn^Tg) on BDF1 background overexpressing human wild-type α-synuclein under the control of the Thy1 promoter were maintained by mating heterozygous transgenic females with WT BDF1 males (Rockenstein E, et al. (2002) Differential neuropathological alterations in transgenic mice expressing alpha-synuclein from the platelet-derived growth factor and Thy-1 promoters. J Neurosci Res 68(5):568-578). BDF1 mice (mixed C57BL/6-DBA/2) were generated every three months by mating female C57BL/6 (The Jackson Laboratory) and male DBA/2 mice (Charles River). Experiments were performed with male transgenic mice and their WT littermates. […] Wild-type littermates received regular water and control chow. […] At two months of age, mice were inoculated with α-Syn PFF unilaterally in the striatum. These treatments continued throughout the experiment until animals were sacrificed. Mice were weighed and their food and water intake was quantified weekly. […]
Vectastain elite ABC kit (Vector Laboratories, Burlingame, Calif.) and 3,3′-diaminobenzidine (Sigma-Aldrich) were used for amplifying and color development. […] For other stains, the whole microscopic field was analyzed. For p-α-Syn stains in the cortex, four matching regions in each of two sections per animal were counted.

[1] = biological target: T1, PP2A methylesterase (PME-1) (Homo sapiens, UniProt Q9Y570); conditions: cited from earlier work
T1 sequence (Q9Y570 1-386): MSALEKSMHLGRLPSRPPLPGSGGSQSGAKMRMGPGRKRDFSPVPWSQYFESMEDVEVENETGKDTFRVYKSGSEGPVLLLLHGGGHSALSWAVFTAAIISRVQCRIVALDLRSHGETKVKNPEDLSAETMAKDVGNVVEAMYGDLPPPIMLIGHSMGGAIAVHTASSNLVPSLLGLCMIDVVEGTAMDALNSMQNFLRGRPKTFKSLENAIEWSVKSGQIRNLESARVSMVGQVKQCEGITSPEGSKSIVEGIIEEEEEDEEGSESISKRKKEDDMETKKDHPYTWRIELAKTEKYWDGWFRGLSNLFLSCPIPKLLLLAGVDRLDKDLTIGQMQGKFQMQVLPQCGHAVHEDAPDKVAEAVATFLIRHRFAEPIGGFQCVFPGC

Syn^Tg mice [2] = conditions: cited from earlier work
[3] = test system: phosphorylated α-synuclein (p-α-Syn); assay: Western blot of p-α-Syn in cortical tissue lysates, Syn^Tg mice; assay type: in vivo; conditions: EHT 12 mg/kg/day and/or caffeine 50 mg/kg/day until six months of age, vs untreated Syn^Tg mice
Description: as §1
Human neuroblastoma SH-SY5Y cells were cultured in DMEM-F12 with 10% FBS. […] Protein concentration was determined by bicinchonic acid (BCA) method (Pierce), equal amount of protein was separated on 5-20% SDS-PAGE gel (Genescript) and transferred to nitrocellulose or PVDF membrane (Biorad). […]

[4] = test system: α-Syn PFF inoculated WT mice; assay: Morris Water Maze, α-Syn PFF inoculated WT mice; assay type: in vivo; conditions: EHT 12 mg/kg/day and/or caffeine 50 mg/kg/day, 6 months post-inoculation, test also not affected by PFF inoculation
Description: as §1, with “weekly. Animals were housed 2-5/cage in an AAALAC approved facility in a temperature- and humidity-controlled environment under a 12-hour light/dark cycle and were maintained on a diet of lab chow and water ad libitum.” for “weekly.”

Syn^Tg mice [5] = assay: Morris Water Maze, Syn^Tg mice; assay type: in vivo; conditions: EHT 12 mg/kg/day in chow and/or caffeine 50 mg/kg/day in drinking water from weaning until six months of age, vs untreated Syn^Tg mice
Description: as §1, with “weekly. Animals were housed 2-5/cage in an AAALAC approved facility in a temperature- and humidity-controlled environment under a 12-hour light/dark cycle and were maintained on a diet of lab chow and water ad libitum.” for “weekly.”

Question: For `CCCCCCCCCCCCCCCCCCCC(=O)NCCc1c[nH]c2ccc(O)cc12` [EHT, eicosanoyl-5-hydroxytryptamide], which “c-fos immunoreactivity in the hippocampus” value (c-fos) is on record?
Answer: The value was “failed to increase c-fos immunoreactivity significantly”.

Question: What about the “inhibition of the activity of the PP2A methylesterase (PME-1)” value [1] of the same compound?
Answer: Its value is “inhibit the activity”.

Question: And the “molecular, histochemical, and behavioral benefits” value (Syn^Tg mice [2]; EHT 12 mg/kg/day in chow, nine months of treatment)?
Answer: Its value is “partial amelioration”.

Question: What about the “PP2A methylation in brain tissue lysates” value (Syn^Tg mice [2]; EHT alone for nine months, dose dependent, more evident at 120 mg/kg/day) of the same compound?
Answer: The value was “modulated PP2A methylation”.

Question: And the “accumulation of p-α-Syn” value (Syn^Tg mice [2]; EHT alone for nine months, more evident at 120 mg/kg/day)?
Answer: Its value is “reduced the accumulation of p-α-Syn”.

Question: And the “p-α-Syn levels by Western blot, cortical tissue lysates” value [3]?
Answer: The value was “no significant effect”.

Question: And the “Learning and memory task on the Morris Water Maze” value [4]?
Answer: The value was “not affected”.

Question: And the “performance on the Morris Water Maze” value (Syn^Tg mice [5])?
Answer: Its value is “did not improve performance”.
